Our source for the EC50 values is patent US9012398B2, “Acylated exendin-4 compounds” (priority 2006, dated 2015).

The target in the experiment is T1, human GLP-1 receptor (Homo sapiens, UniProt P43220).
T1 construct: expressed in transfected cells; host or cells: BHK cells, clone BHK-467-12A; plasma membrane preparation
Nature of the experiment: Functional receptor assay: cAMP formation in plasma membranes of BHK cells expressing the cloned human GLP-1 receptor (GLP1cAMPma). It is filed as biochemical. The method, then: The term “insulinotropic agent” as used herein means a compound which is an agonist of the human GLP-1 receptor, i.e. a compound which stimulates the formation of cAMP in a suitable medium containing the human GLP-1 receptor (one such medium disclosed below). The potency of an insulinotropic agent is determined by calculating the EC50 value from the dose-response curve as described below.
The cells were washed twice in phosphate buffered saline and harvested with Versene. Plasma membranes were prepared from the cells by homogenisation with an Ultraturrax in buffer 1 (20 mM HEPES-Na, 10 mM EDTA, pH 7.4). The homogenate was centrifuged at 48,000×g for 15 min at 4° C. The pellet was suspended by homogenization in buffer 2 (20 mM HEPES-Na, 0.1 mM EDTA, pH 7.4), then centrifuged at 48,000×g for 15 min at 4° C. The washing procedure was repeated one more time. The final pellet was suspended in buffer 2 and used immediately for assays or stored at −80° C.
The functional receptor assay was carried out by measuring cyclic AMP (cAMP) as a response to stimulation by the insulinotropic agent. cAMP formed was quantified by the AlphaScreen™ cAMP Kit (Perkin Elmer Life Sciences). Incubations were carried out in half-area 96-well microtiter plates in a total volume of 50 μL buffer 3 (50 mM Tris-HCl, 5 mM HEPES, 10 mM MgCl2, pH 7.4) and with the following additions: 1 mM ATP, 1 μM GTP, 0.5 mM 3-isobutyl-1-methylxanthine (IBMX), 0.01% Tween-20, 0.1% BSA, 6 μg membrane preparation, 15 μg/mL acceptor beads, 20 μg/mL donor beads preincubated with 6 nM biotinyl-cAMP. […] GTP was freshly prepared for each experiment. The plate was incubated in the dark with slow agitation for three hours at room temperature followed by counting in the Fusion™ instrument (Perkin Elmer Life Sciences). Concentration-response curves were plotted for the individual compounds and EC50 values estimated using a four-parameter logistic model with Prism v. 4.0 (GraphPad, Carlsbad, Calif.).

Where [1] appears, read: cAMP, membranes with human GLP-1 receptor, mean value, read-out: GLP1cAMPma (3693) [EC50 (nM)] Mean Value.

Like-named read-outs stand apart in the source and are kept apart here. Starred links: 1 amine or outer side, 2 acyl side, 3 side chain; linkers in the order of their positions; H or OH if unused. Residues, ends and D or L forms follow the SMILES beside them. Groups on a side chain read outwards from the residue. *: point of attachment. C18 diacid = O=C(O)CCCCCCCCCCCCCCCCC(=O)*; γGlu = O=C(O)[C@H](CCC(=O)[*:2])N[*:1]; Stearoyl = CCCCCCCCCCCCCCCCCC(=O)*; Palmitoyl = CCCCCCCCCCCCCCCC(=O)*; AEEA = NCCOCCOCC(=O)O

T1 sequence (P43220 24-463): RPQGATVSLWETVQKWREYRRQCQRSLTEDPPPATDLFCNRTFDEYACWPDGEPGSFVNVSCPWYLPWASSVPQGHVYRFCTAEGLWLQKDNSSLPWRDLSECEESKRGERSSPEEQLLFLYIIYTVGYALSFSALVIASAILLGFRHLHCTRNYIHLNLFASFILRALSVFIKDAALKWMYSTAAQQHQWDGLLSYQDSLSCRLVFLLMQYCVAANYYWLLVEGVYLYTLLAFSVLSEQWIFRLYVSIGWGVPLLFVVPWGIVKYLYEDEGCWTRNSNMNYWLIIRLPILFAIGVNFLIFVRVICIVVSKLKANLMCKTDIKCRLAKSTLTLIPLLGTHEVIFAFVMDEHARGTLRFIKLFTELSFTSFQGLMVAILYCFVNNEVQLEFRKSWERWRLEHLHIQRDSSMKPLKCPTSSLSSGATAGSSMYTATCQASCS

Take `CC[C@H](C)[C@H](NC(=O)[C@H](Cc1ccccc1)NC(=O)[C@H](CC(C)C)NC(=O)[C@H](CCCCNC(=O)COCCOCCNC(=O)COCCOCCNC(=O)CCCCCCCCCCCCCCCCC(=O)O)NC(=O)[C@@H](NC(=O)[C@H](C)NC(=O)[C@H](CCC(=O)O)NC(=O)[C@H](CCC(=O)O)NC(=O)[C@H](CCC(=O)O)NC(=O)[C@H](CC(C)C)NC(=O)[C@H](CCC(N)=O)NC(=O)[C@H](CCCNC(=N)N)NC(=O)[C@H](CO)NC(=O)[C@H](CC(C)C)NC(=O)[C@H](CC(=O)O)NC(=O)[C@H](CO)NC(=O)[C@@H](NC(=O)[C@H](Cc1ccccc1)NC(=O)[C@@H](NC(=O)CNC(=O)[C@H](CCC(=O)O)NC(=O)CNC(=O)[C@@H](N)Cc1c[nH]cn1)[C@@H](C)O)[C@@H](C)O)C(C)C)C(=O)N[C@@H](CCC(=O)O)C(=O)N[C@@H](Cc1c[nH]c2ccccc12)C(=O)N[C@@H](CC(C)C)C(=O)N[C@@H](CCCNC(=N)N)C(=O)N[C@@H](CCC(N)=O)C(=O)NCC(=O)NCC(=O)N1CCC[C@H]1C(=O)N[C@@H](CO)C(=O)N[C@@H](CO)C(=O)NCC(=O)N[C@@H](C)C(=O)N1CCC[C@H]1C(=O)N1CCC[C@H]1C(=O)N1CCC[C@H]1C(=O)N[C@@H](CO)C(N)=O` [Example 12, N-ε^20-(2-(2-(2-(2-(2-(2-(17-carboxyheptadecanoylamino)ethoxy)ethoxy)acetylamino)ethoxy)ethoxy)acetyl)[Arg12,Leu^14,Arg^27,Gln^28,Lys^20]Exendin-4 (1-39)amide] (H-HGEGTFTSDLSRQLEEEAVK([AEEA-AEEA-C18 diacid])LFIEWLRQGGPSSGAPPPS-NH2; N-terminus assumed): the EC50 under setting [1] was determined as 5.45 nM. Consider `CCCCCCCCCCCCCCCC(=O)N[C@@H](CCC(=O)NCCOCCOCC(=O)NCCCC[C@H](NC(=O)[C@H](CO)NC(=O)[C@H](CO)NC(=O)[C@@H]1CCCN1C(=O)CNC(=O)CNC(=O)[C@H](CC(N)=O)NC(=O)[C@H](CCCNC(=N)N)NC(=O)[C@H](CC(C)C)NC(=O)[C@H](Cc1c[nH]c2ccccc12)NC(=O)[C@H](CCC(=O)O)NC(=O)[C@@H](NC(=O)[C@H](Cc1ccccc1)NC(=O)[C@H](CC(C)C)NC(=O)[C@H](CCCNC(=N)N)NC(=O)[C@@H](NC(=O)[C@H](C)NC(=O)[C@H](CCC(=O)O)NC(=O)[C@H](CCC(=O)O)NC(=O)[C@H](CCC(=O)O)NC(=O)[C@H](CC(C)C)NC(=O)[C@H](CCC(N)=O)NC(=O)[C@H](CCCNC(=N)N)NC(=O)[C@H](CO)NC(=O)[C@H](CC(C)C)NC(=O)[C@H](CC(=O)O)NC(=O)[C@H](CO)NC(=O)[C@@H](NC(=O)[C@H](Cc1ccccc1)NC(=O)[C@@H](NC(=O)CNC(=O)[C@H](CCC(=O)O)NC(=O)CNC(=O)[C@@H](N)Cc1c[nH]cn1)[C@@H](C)O)[C@@H](C)O)C(C)C)[C@@H](C)CC)C(=O)N[C@@H](C)C(=O)N1CCC[C@H]1C(=O)N1CCC[C@H]1C(=O)N1CCC[C@H]1C(=O)N[C@@H](CO)C(N)=O)C(=O)O` [Example 7, N-ε^34-[2-(2-[2-[4-hexadecanoylamino-4(S)-carboxybutyrylamino]ethoxy]ethoxy)acetyl][Arg^12,27,Leu^14,Lys^34] Exendin-4(1-39)amide] (H-HGEGTFTSDLSRQLEEEAVRLFIEWLRNGGPSSK([AEEA-γGlu-Palmitoyl])APPPS-NH2), for which the EC50 amounted to 0.012 nM. The same measure, in the same setting: then `CCCCCCCCCCCCCCCCCC(=O)NCCOCCOCC(=O)NCCOCCOCC(=O)NCCOCCOCC(=O)NCCCC[C@H](NC(=O)[C@@H]1CCCN1C(=O)CNC(=O)CNC(=O)[C@H](CCCNC(=N)N)NC(=O)[C@@H](NC(=O)[C@H](CC(C)C)NC(=O)[C@H](Cc1c[nH]c2ccccc12)NC(=O)[C@H](CCC(=O)O)NC(=O)[C@@H](NC(=O)[C@H](Cc1ccccc1)NC(=O)[C@H](CC(C)C)NC(=O)[C@H](CCCNC(=N)N)NC(=O)[C@@H](NC(=O)[C@H](C)NC(=O)[C@H](CCC(=O)O)NC(=O)[C@H](CCC(=O)O)NC(=O)[C@H](CCC(=O)O)NC(=O)[C@H](CC(C)C)NC(=O)[C@H](CCC(N)=O)NC(=O)[C@H](CCCNC(=N)N)NC(=O)[C@H](CO)NC(=O)[C@H](CC(C)C)NC(=O)[C@H](CC(=O)O)NC(=O)[C@H](CO)NC(=O)[C@@H](NC(=O)[C@H](Cc1ccccc1)NC(=O)[C@@H](NC(=O)CNC(=O)[C@H](CCC(=O)O)NC(=O)CNC(=O)[C@@H](N)Cc1c[nH]cn1)[C@@H](C)O)[C@@H](C)O)C(C)C)[C@@H](C)CC)C(C)C)C(=O)N[C@@H](CO)C(=O)NCC(=O)N[C@@H](C)C(=O)N1CCC[C@H]1C(=O)N1CCC[C@H]1C(=O)N1CCC[C@H]1C(=O)N[C@@H](CO)C(N)=O` [Example 2] (H-HGEGTFTSDLSRQLEEEAVRLFIEWLVRGGPK([AEEA-AEEA-AEEA-Stearoyl])SGAPPPS-NH2), with 0.027 nM. On to `CCCCCCCCCCCCCCCC(=O)N[C@@H](CCC(=O)NCCOCCOCC(=O)NCCOCCOCC(=O)NCCCC[C@H](NC(=O)[C@H](CO)NC(=O)[C@H](CO)NC(=O)[C@@H]1CCCN1C(=O)CNC(=O)CNC(=O)[C@H](CC(N)=O)NC(=O)[C@H](CCCNC(=N)N)NC(=O)[C@H](CC(C)C)NC(=O)[C@H](Cc1c[nH]c2ccccc12)NC(=O)[C@H](CCC(=O)O)NC(=O)[C@@H](NC(=O)[C@H](Cc1ccccc1)NC(=O)[C@H](CC(C)C)NC(=O)[C@H](CCCNC(=N)N)NC(=O)[C@@H](NC(=O)[C@H](C)NC(=O)[C@H](CCC(=O)O)NC(=O)[C@H](CCC(=O)O)NC(=O)[C@H](CCC(=O)O)NC(=O)[C@H](CC(C)C)NC(=O)[C@H](CCC(N)=O)NC(=O)[C@H](CCCNC(=N)N)NC(=O)[C@H](CO)NC(=O)[C@H](CC(C)C)NC(=O)[C@H](CC(=O)O)NC(=O)[C@H](CO)NC(=O)[C@@H](NC(=O)[C@H](Cc1ccccc1)NC(=O)[C@@H](NC(=O)CNC(=O)[C@H](CCC(=O)O)NC(=O)CNC(=O)[C@@H](N)Cc1c[nH]cn1)[C@@H](C)O)[C@@H](C)O)C(C)C)[C@@H](C)CC)C(=O)N[C@@H](C)C(=O)N1CCC[C@H]1C(=O)N1CCC[C@H]1C(=O)N1CCC[C@H]1C(=O)N[C@@H](CO)C(N)=O)C(=O)O` [Example 6, N-ε^34-[2-(2-[2-(2-[2-(2-[4-hexadecanoylamino-4(S)-carboxybutyrylamino]ethoxy)ethoxy]acetylamino)ethoxy]ethoxy)acetyl] [Arg^12,27,Leu^14,Lys^34]Exendin-4(1-39)amide] (H-HGEGTFTSDLSRQLEEEAVRLFIEWLRNGGPSSK([AEEA-AEEA-γGlu-Palmitoyl])APPPS-NH2; N-terminus assumed), for which the EC50 under setting [1] came out at 0.018 nM. On the same count and under the same terms, to `CCCCCCCCCCCCCCCCCC(=O)N[C@@H](CCC(=O)NCCOCCOCC(=O)NCCOCCOCC(=O)NCCCC[C@H](NC(=O)[C@@H](NC(=O)[C@H](C)NC(=O)[C@H](CCC(=O)O)NC(=O)[C@H](CCC(=O)O)NC(=O)[C@H](CCC(=O)O)NC(=O)[C@H](CC(C)C)NC(=O)[C@H](CCC(N)=O)NC(=O)[C@H](CCCNC(=N)N)NC(=O)[C@H](CO)NC(=O)[C@H](CC(C)C)NC(=O)[C@H](CC(=O)O)NC(=O)[C@H](CO)NC(=O)[C@@H](NC(=O)[C@H](Cc1ccccc1)NC(=O)[C@@H](NC(=O)CNC(=O)[C@H](CCC(=O)O)NC(=O)CNC(=O)[C@@H](N)Cc1c[nH]cn1)[C@@H](C)O)[C@@H](C)O)C(C)C)C(=O)N[C@@H](CC(C)C)C(=O)N[C@@H](Cc1ccccc1)C(=O)N[C@H](C(=O)N[C@@H](CCC(=O)O)C(=O)N[C@@H](Cc1c[nH]c2ccccc12)C(=O)N[C@@H](CC(C)C)C(=O)N[C@@H](CCCNC(=N)N)C(=O)N[C@@H](CCC(N)=O)C(=O)NCC(=O)NCC(=O)N1CCC[C@H]1C(=O)N[C@@H](CO)C(=O)N[C@@H](CO)C(=O)NCC(=O)N[C@@H](C)C(=O)N1CCC[C@H]1C(=O)N1CCC[C@H]1C(=O)N1CCC[C@H]1C(=O)N[C@@H](CO)C(N)=O)[C@@H](C)CC)C(=O)O` [Example 15] (H-HGEGTFTSDLSRQLEEEAVK([AEEA-AEEA-γGlu-Stearoyl])LFIEWLRQGGPSSGAPPPS-NH2) belongs 0.044 nM.
